Laboratory results taken from patent US20220062330A1, “USE OF THIOSULFATE TO POTENTIATE THE ANTI-PATHOGENIC EFFECT OF LACTOBACILLI” (NEXBIOME THERAPEUTICS, priority 2012, published 2022).

Test system: Candida albicans
Details: sodium thiosulfate alone in MRS medium, 1 g/l and 3 g/l, regardless of the concentration studied

## O=S(O)(O)=S [sodium thiosulfate]
  antifungal potential on Candida albicans growth: No antifungal potential
